Patent US20220251163A1 (Sinopep-Allsino Biopharmaceutical Co., Ltd., priority 2019, published 2022)
Where a SMILES comes first, the peptide text is derived from it.

Experiments:
mGLP-1R = target: T1, mGLP-1R (Mus musculus, UniProt O35659); assay: GLP-1R agonist activity, cAMP in transfected HEK293 cells; type: cell-based; settings: HEK293 cells transfected with GLP-1R, cAMP, 20 min incubation; read-out: mGLP-1R EC50
T1 construct: expressed in transfected cells; host or cells: HEK293
T1 sequence (O35659 22-463): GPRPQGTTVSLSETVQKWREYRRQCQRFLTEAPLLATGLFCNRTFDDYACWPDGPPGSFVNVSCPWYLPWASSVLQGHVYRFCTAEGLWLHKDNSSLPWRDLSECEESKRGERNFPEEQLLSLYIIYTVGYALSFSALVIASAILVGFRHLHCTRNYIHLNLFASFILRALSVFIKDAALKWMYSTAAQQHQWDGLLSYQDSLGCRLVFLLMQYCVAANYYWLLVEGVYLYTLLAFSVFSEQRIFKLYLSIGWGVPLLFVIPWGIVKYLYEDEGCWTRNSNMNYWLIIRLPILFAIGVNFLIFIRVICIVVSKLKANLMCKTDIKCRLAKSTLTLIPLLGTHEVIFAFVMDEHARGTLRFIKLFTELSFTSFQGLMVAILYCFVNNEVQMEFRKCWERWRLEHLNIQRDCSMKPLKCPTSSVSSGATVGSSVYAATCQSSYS
Protocol: HEK293 cells were co-transfected with cDNA encoding GLP-1R or GIPR. In a test for determining the compound, the cells were inoculated in a 96-well plate 2 h in advance, the polypeptide compound was dissolved with DMSO, and diluted to different multiples with a culture medium containing 0.1% bovine serum albumin and added to the co-transfected cells. After the cells were incubated for 20 min, fluorescence values were determined through microplate reader of an ELISA kit of the Cisbo Company, a standard curve was established to convert the fluorescence values into corresponding cAMP values, and the EC50 value of the compound was calculated through nonlinear regression of Graphpad Prism 5.0 software.

mGIPR = target: T2, mGIPR (Mus musculus, UniProt Q0P543); assay: GIPR agonist activity, cAMP in transfected HEK293 cells; type: cell-based; settings: HEK293 cells transfected with GIPR, cAMP, 20 min incubation; read-out: mGIPR EC50
T2 construct: expressed in transfected cells; host or cells: HEK293
T2 sequence (Q0P543 19-460): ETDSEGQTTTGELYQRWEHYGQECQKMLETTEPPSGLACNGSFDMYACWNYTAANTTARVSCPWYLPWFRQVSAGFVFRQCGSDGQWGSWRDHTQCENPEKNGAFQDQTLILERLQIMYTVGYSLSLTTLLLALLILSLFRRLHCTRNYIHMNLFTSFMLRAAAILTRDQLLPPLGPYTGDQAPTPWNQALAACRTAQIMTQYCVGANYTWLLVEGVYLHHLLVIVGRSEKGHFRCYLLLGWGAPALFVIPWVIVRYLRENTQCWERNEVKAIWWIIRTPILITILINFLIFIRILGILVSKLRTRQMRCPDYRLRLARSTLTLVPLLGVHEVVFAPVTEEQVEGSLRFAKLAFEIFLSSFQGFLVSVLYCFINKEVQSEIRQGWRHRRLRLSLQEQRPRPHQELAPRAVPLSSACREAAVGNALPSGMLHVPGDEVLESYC
Protocol: HEK293 cells were co-transfected with cDNA encoding GLP-1R or GIPR. In a test for determining the compound, the cells were inoculated in a 96-well plate 2 h in advance, the polypeptide compound was dissolved with DMSO, and diluted to different multiples with a culture medium containing 0.1% bovine serum albumin and added to the co-transfected cells.

CCCCCCCCCCCCCCCC(=O)N[C@@H](CCC(=O)NCCCC[C@H](NC(=O)[C@H](CCC(N)=O)NC(=O)[C@H](C)NC(=O)[C@@H](NC(=O)[C@H](CCCCN)NC(=O)[C@H](CC(=O)O)NC(=O)[C@H](CC(C)C)NC(=O)[C@H](C)NC(=O)[C@@H](NC(=O)[C@H](CO)NC(=O)[C@H](Cc1ccc(O)cc1)NC(=O)[C@H](CC(=O)O)NC(=O)[C@H](CO)NC(=O)[C@@H](NC(=O)[C@H](Cc1ccccc1)NC(=O)[C@@H](NC(=O)CNC(=O)[C@H](CCC(=O)O)NC(=O)C(C)(C)NC(=O)[C@@H](N)Cc1ccc(O)cc1)[C@@H](C)O)[C@@H](C)O)[C@@H](C)CC)[C@@H](C)CC)C(=O)N[C@@H](C)C(=O)N[C@@H](Cc1ccccc1)C(=O)N[C@H](C(=O)N[C@@H](CCC(N)=O)C(=O)N[C@@H](Cc1c[nH]c2ccccc12)C(=O)N[C@@H](CC(C)C)C(=O)N[C@H](C(=O)N[C@@H](C)C(=O)NCC(=O)NCC(=O)N1CCC[C@H]1C(=O)N[C@@H](CO)C(=O)N[C@@H](CO)C(=O)NCC(=O)N[C@@H](C)C(=O)N1CCC[C@H]1C(=O)N1CCC[C@H]1C(=O)N1CCC[C@H]1C(=O)N[C@@H](CO)C(N)=O)[C@@H](C)CC)C(C)C)C(=O)O [ID NO: 17] (HELM PEPTIDE1{Y.[Aib].E.G.T.F.T.S.D.Y.S.I.A.L.D.K.I.A.Q.K.A.F.V.Q.W.L.I.A.G.G.P.S.S.G.A.P.P.P.S.[am]}|PEPTIDE2{[CCCCCCCCCCCCCCCC(=O)[*:2]].[gGlu]}$PEPTIDE1,PEPTIDE2,20:R3-2:R2$$$V2.0)
EC50 (mGLP-1R): 45.4 pM | EC50 (mGIPR): 9.72 pM

CCCCCCCCCCCCCCCC(=O)N[C@@H](CCC(=O)NCCCC[C@H](NC(=O)[C@H](CCC(N)=O)NC(=O)[C@H](C)NC(=O)[C@@H](NC(=O)[C@H](CCCCN)NC(=O)[C@H](CC(=O)O)NC(=O)[C@H](CC(C)C)NC(=O)C(C)(C)NC(=O)[C@@H](NC(=O)[C@H](CO)NC(=O)[C@H](Cc1ccc(O)cc1)NC(=O)[C@H](CC(=O)O)NC(=O)[C@H](CO)NC(=O)[C@@H](NC(=O)[C@H](Cc1ccccc1)NC(=O)[C@@H](NC(=O)CNC(=O)[C@H](CCC(=O)O)NC(=O)C1(NC(=O)[C@@H](N)Cc2ccc(O)cc2)CCC1)[C@@H](C)O)[C@@H](C)O)[C@@H](C)CC)[C@@H](C)CC)C(=O)N[C@@H](C)C(=O)N[C@@H](Cc1ccccc1)C(=O)N[C@H](C(=O)N[C@@H](CCC(N)=O)C(=O)N[C@@H](Cc1c[nH]c2ccccc12)C(=O)N[C@@H](CC(C)C)C(=O)N[C@H](C(=O)N[C@@H](C)C(=O)NCC(=O)NCC(=O)N1CCC[C@H]1C(=O)N[C@@H](CO)C(=O)N[C@@H](CO)C(=O)NCC(=O)N[C@@H](C)C(=O)N1CCC[C@H]1C(=O)N1CCC[C@H]1C(=O)N1CCC[C@H]1C(=O)N[C@@H](CO)C(N)=O)[C@@H](C)CC)C(C)C)C(=O)O [ID NO: 18]
EC50 (mGLP-1R): 9.02 pM | EC50 (mGIPR): 8.33 pM

CCCCCCCCCCCCCCCC(=O)N[C@@H](CCC(=O)NCCCC[C@H](NC(=O)[C@H](CCC(N)=O)NC(=O)[C@H](C)NC(=O)[C@@H](NC(=O)[C@H](CCCCN)NC(=O)[C@H](CC(=O)O)NC(=O)[C@H](CC(C)C)NC(=O)C1(NC(=O)[C@@H](NC(=O)[C@H](CO)NC(=O)[C@H](Cc2ccc(O)cc2)NC(=O)[C@H](CC(=O)O)NC(=O)[C@H](CO)NC(=O)[C@@H](NC(=O)[C@H](Cc2ccccc2)NC(=O)[C@@H](NC(=O)CNC(=O)[C@H](CCC(=O)O)NC(=O)C(C)(C)NC(=O)[C@@H](N)Cc2ccc(O)cc2)[C@@H](C)O)[C@@H](C)O)[C@@H](C)CC)CCC1)[C@@H](C)CC)C(=O)N[C@@H](C)C(=O)N[C@@H](Cc1ccccc1)C(=O)N[C@H](C(=O)N[C@@H](CCC(N)=O)C(=O)N[C@@H](Cc1c[nH]c2ccccc12)C(=O)N[C@@H](CC(C)C)C(=O)N[C@H](C(=O)N[C@@H](C)C(=O)NCC(=O)NCC(=O)N1CCC[C@H]1C(=O)N[C@@H](CO)C(=O)N[C@@H](CO)C(=O)NCC(=O)N[C@@H](C)C(=O)N1CCC[C@H]1C(=O)N1CCC[C@H]1C(=O)N1CCC[C@H]1C(=O)N[C@@H](CO)C(N)=O)[C@@H](C)CC)C(C)C)C(=O)O [ID NO: 19]
EC50 (mGLP-1R): 11.9 pM | EC50 (mGIPR): 7.91 pM

CCCCCCCCCCCCCCCC(=O)N[C@@H](CCC(=O)NCCCC[C@H](NC(=O)[C@H](CCC(N)=O)NC(=O)[C@H](C)NC(=O)[C@@H](NC(=O)[C@H](CCCCN)NC(=O)[C@H](CC(=O)O)NC(=O)[C@H](CC(C)C)NC(=O)C(C)(C)NC(=O)[C@@H](NC(=O)[C@H](CO)NC(=O)[C@H](Cc1ccc(O)cc1)NC(=O)[C@H](CC(=O)O)NC(=O)[C@H](CO)NC(=O)[C@@H](NC(=O)[C@H](Cc1ccccc1)NC(=O)[C@@H](NC(=O)CNC(=O)[C@H](CCC(=O)O)NC(=O)C1(NC(=O)[C@@H](N)Cc2ccc(O)cc2)CCCC1)[C@@H](C)O)[C@@H](C)O)[C@@H](C)CC)[C@@H](C)CC)C(=O)N[C@@H](C)C(=O)N[C@@H](Cc1ccccc1)C(=O)N[C@H](C(=O)N[C@@H](CCC(N)=O)C(=O)N[C@@H](Cc1c[nH]c2ccccc12)C(=O)N[C@@H](CC(C)C)C(=O)N[C@H](C(=O)N[C@@H](C)C(=O)NCC(=O)NCC(=O)N1CCC[C@H]1C(=O)N[C@@H](CO)C(=O)N[C@@H](CO)C(=O)NCC(=O)N[C@@H](C)C(=O)N1CCC[C@H]1C(=O)N1CCC[C@H]1C(=O)N1CCC[C@H]1C(=O)N[C@@H](CO)C(N)=O)[C@@H](C)CC)C(C)C)C(=O)O [ID NO: 20]
EC50 (mGLP-1R): 15.9 pM | EC50 (mGIPR): 5.91 pM

CCCCCCCCCCCCCCCC(=O)N[C@@H](CCC(=O)NCCCC[C@H](NC(=O)[C@H](CCC(N)=O)NC(=O)[C@H](C)NC(=O)[C@@H](NC(=O)[C@H](CCCCN)NC(=O)[C@H](CC(=O)O)NC(=O)[C@H](CC(C)C)NC(=O)C1(NC(=O)[C@@H](NC(=O)[C@H](CO)NC(=O)[C@H](Cc2ccc(O)cc2)NC(=O)[C@H](CC(=O)O)NC(=O)[C@H](CO)NC(=O)[C@@H](NC(=O)[C@H](Cc2ccccc2)NC(=O)[C@@H](NC(=O)CNC(=O)[C@H](CCC(=O)O)NC(=O)C(C)(C)NC(=O)[C@@H](N)Cc2ccc(O)cc2)[C@@H](C)O)[C@@H](C)O)[C@@H](C)CC)CCCC1)[C@@H](C)CC)C(=O)N[C@@H](C)C(=O)N[C@@H](Cc1ccccc1)C(=O)N[C@H](C(=O)N[C@@H](CCC(N)=O)C(=O)N[C@@H](Cc1c[nH]c2ccccc12)C(=O)N[C@@H](CC(C)C)C(=O)N[C@H](C(=O)N[C@@H](C)C(=O)NCC(=O)NCC(=O)N1CCC[C@H]1C(=O)N[C@@H](CO)C(=O)N[C@@H](CO)C(=O)NCC(=O)N[C@@H](C)C(=O)N1CCC[C@H]1C(=O)N1CCC[C@H]1C(=O)N1CCC[C@H]1C(=O)N[C@@H](CO)C(N)=O)[C@@H](C)CC)C(C)C)C(=O)O [ID NO: 21]
EC50 (mGLP-1R): 17.8 pM | EC50 (mGIPR): 8.07 pM
